According to patent US8338434B2, “Inhibitors of Akt activity” (GlaxoSmithKline LLC, priority 2007, dated 2012):

Biological target: T1, full length AKT1 (Homo sapiens, UniProt P31749)
T1 construct: His tag (from vector pFastBacHTb; purified on Nickel Sepharose) (N); made in house; host or cells: baculovirus; Sf9 / T. ni insect cells
Test: Full-Length AKT Enzyme Assay (substrate phosphorylation, SPA)
Assay type: biochemical
Settings: in at least one experimental run; pIC50 = -log(IC50), IC50 in molar units; 10 nM activated AKT enzyme, 4 uM ATP, 8 uM peptide; read-out: pIC50 value against full length AKT1 (converted)
Source text: Cloning of Full-Length Human (FL) AKT1:
Full-length human AKT1 gene was amplified by PCR from a plasmid containing myristylated-AKT1-ER (gift from Robert T. Abraham, Duke University under MTA, described in Klippel et al. in Molecular and Cellular Biology 1998 Volume 18 p. 5699) using the 5′ primer: SEQ. ID NO: 2 5′ […] 3′ and the 3′ primer: SEQ. ID NO: 3 […] 3′. The 5′ primer included a BamHI site and the 3′primer included an XhoI site for cloning purposes. The resultant PCR product was subcloned in pcDNA3 as a BamHI/XhoI fragment. A mutation in the sequence (TGC) coding for a Cysteine^25 was converted to the wild-type AKT1 sequence (CGC) coding for an Arginine^25 by site-directed mutagenesis using the QuikChange® Site Directed Mutagenesis Kit (Stratagene). The AKT1 mutagenic primer: SEQ. ID NO: 4 5′ […] and selection primer: SEQ. […] For expression/purification purposes, AKT1 was isolated as a BamHI/XhoI fragment and cloned into the BamHI/XhoI sites of pFastbacHTb (Invitrogen).
Expression was done using the BAC-to-BAC Baculovirus Expression System from Invitrogen (catalog #10359-016). […]
Compounds of the present invention were tested for AKT 1, 2, and 3 protein serine kinase inhibitory activity in substrate phosphorylation assays. […] Substrate phosphorylation was detected by the following procedure. […]

T1 sequence (P31749 whole entry): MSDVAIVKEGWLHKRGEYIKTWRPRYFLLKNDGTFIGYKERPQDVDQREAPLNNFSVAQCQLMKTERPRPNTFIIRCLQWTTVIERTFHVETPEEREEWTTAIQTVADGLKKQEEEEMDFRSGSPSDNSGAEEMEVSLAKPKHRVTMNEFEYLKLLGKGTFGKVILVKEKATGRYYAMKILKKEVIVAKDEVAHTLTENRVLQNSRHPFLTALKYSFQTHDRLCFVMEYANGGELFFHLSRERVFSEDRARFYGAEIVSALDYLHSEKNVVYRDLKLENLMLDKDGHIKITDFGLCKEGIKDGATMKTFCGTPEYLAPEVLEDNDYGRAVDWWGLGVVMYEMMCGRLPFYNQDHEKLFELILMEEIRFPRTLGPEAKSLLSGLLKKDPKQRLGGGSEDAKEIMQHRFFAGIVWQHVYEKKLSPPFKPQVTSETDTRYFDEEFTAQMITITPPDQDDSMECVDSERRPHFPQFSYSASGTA

Cn1nccc1-c1ccc(C(=O)NC(CN)Cc2ccccc2)cn1 (stereo not shown) [Example 2, N-[2-amino-1-(phenylmethyl)ethyl]-6-(1-methyl-1H-pyrazol-5-yl)-3-pyridinecarboxamide]
IC50: 10 nM
